Read-outs that look alike come from different tables or passages of the source.
Biological target: T1, DPD (Rattus norvegicus, UniProt O89000)
T1 construct: the obtained supernatant was used as a DPD enzyme solution or an OPRT enzyme solution; from tissue; host or cells: liver of 8-week old SD rat; 105,000 g supernatant of homogenate
T1 sequence (O89000 1-1025): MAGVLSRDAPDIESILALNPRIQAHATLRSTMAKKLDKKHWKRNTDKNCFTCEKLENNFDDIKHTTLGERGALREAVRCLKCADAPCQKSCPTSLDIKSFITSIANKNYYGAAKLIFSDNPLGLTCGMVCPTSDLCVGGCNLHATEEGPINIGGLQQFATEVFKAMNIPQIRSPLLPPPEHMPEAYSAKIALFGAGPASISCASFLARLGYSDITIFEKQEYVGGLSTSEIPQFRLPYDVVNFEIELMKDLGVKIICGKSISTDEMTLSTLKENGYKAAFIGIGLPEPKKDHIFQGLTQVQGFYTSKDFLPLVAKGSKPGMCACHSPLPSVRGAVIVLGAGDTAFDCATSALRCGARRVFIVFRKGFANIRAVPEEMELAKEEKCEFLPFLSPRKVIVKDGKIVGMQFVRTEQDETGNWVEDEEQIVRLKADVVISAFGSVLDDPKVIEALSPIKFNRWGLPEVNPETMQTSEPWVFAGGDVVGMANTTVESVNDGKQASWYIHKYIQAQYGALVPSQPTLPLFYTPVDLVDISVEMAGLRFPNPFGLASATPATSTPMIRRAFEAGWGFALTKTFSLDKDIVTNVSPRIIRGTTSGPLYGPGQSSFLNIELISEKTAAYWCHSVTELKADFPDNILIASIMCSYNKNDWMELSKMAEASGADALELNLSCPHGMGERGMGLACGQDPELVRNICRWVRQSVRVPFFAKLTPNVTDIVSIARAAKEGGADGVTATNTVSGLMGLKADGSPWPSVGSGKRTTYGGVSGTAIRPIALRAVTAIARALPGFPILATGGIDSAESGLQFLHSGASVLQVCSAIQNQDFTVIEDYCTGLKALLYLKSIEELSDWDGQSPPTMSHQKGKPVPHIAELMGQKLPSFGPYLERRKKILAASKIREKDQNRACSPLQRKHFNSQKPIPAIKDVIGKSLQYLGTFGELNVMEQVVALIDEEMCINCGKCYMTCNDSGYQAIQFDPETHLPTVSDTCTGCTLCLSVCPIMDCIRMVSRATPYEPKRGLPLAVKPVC
Test: DPD inhibitory action in vitro (enzyme reaction, tritium-labeled 5-FU as substrate)
Type: biochemical
Procedure: The resulting product was diluted to concentrations of 1 mM, 100 μM, 10 μM, and 1 μM with a 10 mM potassium phosphate buffer solution (pH 6.0), thereby obtaining Test Liquids 1. The obtained Test Liquids 1 were separately added to the enzyme reaction solution described below to give final concentrations of 200 μM, 20 μM, 2 μM, and 0.2 μM. • (b) Test liquid preparation (2): As a DPD inhibitor, 5-chloro-2,4-dihydroxypyridine (CDHP; gimeracil) was dissolved to a concentration of 10 mM in a 10 mM potassium phosphate buffer solution (pH 6.0). The resulting product was diluted to concentrations of 1 mM, 100 μM, 10 μM, and 1 μM, thereby obtaining Test Liquids 2. The obtained Test Liquids 2 were separately added to the enzyme reaction solution to give final concentrations of 200 μM, 20 μM, 2 μM, and 0.2 μM. • (c) Test liquid preparation (3): As an OPRT inhibitor, citrazinic acid (Citra. A.) was dissolved to a concentration of 10 mM in 20 mM trishydroxyaminomethane-hydrochloric buffer solution (pH 8.0). Thereafter, the resulting product was diluted to concentrations of 1 mM, 100 μM, and 10 μM with a 10 mM potassium phosphate buffer solution, thereby obtaining Test Liquids (3). The obtained Test Liquids 3 were separately added to the enzyme reaction solution to give final concentrations of 200 μM, 20 μM, and 2 μM. • (d) Preparation of enzyme solution: The liver of an 8-week old SD rat was used as a DPD enzyme source, while human tumor cells that had been transplanted into a nude mouse and proliferated therein were used as an OPRT enzyme source. Specifically, immediately after a rat liver or successively-transplanted human tumor cells were extracted, a 50-mM tris-hydrochloric acid buffer solution (pH 8.0) containing 0.25 M saccharose, 5 mM magnesium chloride, and 1 mM dithreitol was added thereto to a concentration of 25% (w/v) and homogenized. Thereafter, ultracentrifugation was performed at 105,000 g for 60 minutes, and the obtained supernatant was used as a DPD enzyme solution or an OPRT enzyme solution. • (e) Enzyme reaction: A DPD enzyme reaction was carried out in accordance with the method of Tatsumi et al. (Gann, 78: 748-755 (1987)) using 5-FU labeled with tritium as a substrate. An OPRT enzyme reaction was carried out in accordance with the method of Shirasaka et al. (Cancer Res., 53: 4004-4009 (1993)) using 5-FU labeled with tritium as a substrate. Then, the activity of a control group (with no test compound) and test compound groups was measured. The percent inhibition of the test compound relative to DPD or OPRT was calculated using the following formula: [1-(the enzyme activity with the test compound/the enzyme activity of the control group)]×100(%).
The resulting product was diluted to concentrations of 1 mM, 100 μM, 10 μM, and 1 μM with a 10 mM potassium phosphate buffer solution (pH 6.0), thereby obtaining Test Liquids 1. The obtained Test Liquids 1 were separately added to the enzyme reaction solution described below to give final concentrations of 200 μM, 20 μM, 2 μM, and 0.2 μM. • (b) Preparation of enzyme solution: The liver of an 8-week old SD rat was used as a DPD enzyme source, while human tumor cells that had been transplanted into a nude mouse and proliferated therein were used as an OPRT enzyme source. Specifically, immediately after a rat liver or successively-transplanted human tumor cells were extracted, a 50-mM tris-hydrochloric acid buffer solution (pH 8.0) containing 0.25 M saccharose, 5 mM magnesium chloride, and 1 mM dithreitol was added thereto to a concentration of 25% (w/v) and homogenized. Thereafter, ultracentrifugation was performed at 105,000 g for 60 minutes, and the obtained supernatant was used as a DPD enzyme solution or an OPRT enzyme solution. • (c) Enzyme reaction: A DPD enzyme reaction was carried out in accordance with the method of Tatsumi et al. (Gann, 78: 748-755 (1987)) using 5-FU labeled with tritium as a substrate. […]

[1] = 0.2 μM, Table 2, read-out: DPD Inhibition (%)
[2] = 2 μM, Table 2, read-out: DPD Inhibition (%)

In the case of `CCOCn1cc(F)c(=O)n(C(=O)c2cccc(C(=O)Oc3cc(OC(=O)c4cc(O)nc(O)c4)c(Cl)cn3)c2)c1=O` [Compound I-2, 3-{3-[4-(2,6-dihydroxyisonicotinoyloxy)-5-chloro-2-pyridyloxycarbonyl]benzoyl}-1-ethoxymethyl-5-fluorouracil], the “DPD Inhibitory Activity: Activity” value (Conc. 0.2 μM, Table 1) is reported as 0.613 nmol/mL/min, the inhibition at 0.2 µM (Conc. 0.2 μM, Table 1, read-out: DPD Inhibitory Activity: Inhibition) is reported as 39.2% and the “DPD Inhibitory Activity: Activity” value (Conc. 2 μM, Table 1) is reported as 0.157 nmol/mL/min. For the same molecule, the inhibition at 2 µM (Conc. 2 μM, Table 1, read-out: DPD Inhibitory Activity: Inhibition) was 84.4%, the “DPD Inhibitory Activity: Activity” value (Conc. 20 μM, Table 1) was 0.075 nmol/mL/min and the inhibition at 20 µM (Conc. 20 μM, Table 1) was 92.6%. The “DPD Inhibitory Activity: Activity” value (Conc. 200 μM, Table 1) was 0.100 nmol/mL/min and the inhibition at 200 µM (Conc. 200 μM, Table 1) was 90%.

`CCOCn1cc(F)c(=O)n(C(=O)c2cccc(C(=O)Oc3cc(OC(=O)c4cc(OC(C)=O)nc(OC(C)=O)c4)c(Cl)cn3)c2)c1=O` [Compound I-10, 3-{3-[4-(2,6-diacetyloxyisonicotinoyloxy)-5-chloro-2-pyridyloxycarbonyl]benzoyl}-1-ethoxymethyl-5-fluorouracil] showed an inhibition at 0.2 µM [1] of 43.9% and an inhibition at 2 µM [2] of 77.2%.

`CCOCn1cc(F)c(=O)n(C(=O)c2cccc(C(=O)Oc3cc(OC(=O)c4cc(OC(=O)CC)nc(OC(=O)CC)c4)c(Cl)cn3)c2)c1=O` [Compound I-11, 3-{3-[4-(2,6-dipropionyloxyisonicotinoyloxy)-5-chloro-2-pyridyloxycarbonyl]benzoyl}-1-ethoxymethyl-5-fluorouracil] was tested, and the IC50 (5-FU as substrate, Test Example 4, read-out: IC50 of DPD activity inhibition) was ~500 nM, the “DPD Inhibitory Activity: Activity” value (Conc. 0.2 μM, Table 5) was 0.285 nmol/mL/min and the inhibition at 0.2 µM (Conc. 0.2 μM, Table 5, read-out: DPD Inhibitory Activity: Inhibition) was 56.8%. The “DPD Inhibitory Activity: Activity” value (Conc. 2 μM, Table 5) was 0.216 nmol/mL/min, the inhibition at 2 µM (Conc. 2 μM, Table 5, read-out: DPD Inhibitory Activity: Inhibition) was 67.2% and the “DPD Inhibitory Activity: Activity” value (Conc. 20 μM, Table 5) was 0.081 nmol/mL/min. The inhibition at 20 µM (Conc. 20 μM, Table 5) was 87.7%.

`CCOCn1cc(F)c(=O)n(C(=O)c2cccc(C(=O)Oc3cc(OC(=O)c4cc(OC(=O)C5CCCC5)nc(OC(=O)C5CCCC5)c4)c(Cl)cn3)c2)c1=O` [Compound I-9, 3-{3-[4-(2,6-dicyclopentanecarbonyloxyisonicotinoyloxy)-5-chloro-2-pyridyloxycarbonyl]benzoyl}-1-ethoxymethyl-5-fluorouracil] showed an inhibition at 0.2 µM [1] of 45.7% and an inhibition at 2 µM [2] of 74.6%.

From patent US8889699B2, “5-fluorouracil derivative” (Delta-Fly Pharma, Inc., priority 2009, dated 2014)
